Assay results: PubChem BioAssay AID248 (DTP/NCI, 2004)
Several values for one entry are separate records, joined by “and”; a condition that tells them apart may be missing. Identical values can stand only once. Toxic doses and inconclusive results are not listed.

Tested on: L1210 leukemia ip in BDF1 mice, survival T/C
Experiment: NCI In Vivo Anticancer Drug Screen. Data for tumor model L1210 Leukemia (intraperitoneal) in B6D2F1 (BDF1) mice
Details: endpoint: mean survival time, higher = longer survival
Method in brief: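 Value reflects the ratio of survival in compound-treated mice to survival in vehicle-treated controls, with both groups carrying the same transplanted tumor.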

[1] = dose: 100.0 mg/kg/injection, schedule: Q04DX002 (ip), vehicle: Klucel (hydroxypropylcellulose) (HPC)
[2] = dose: 100.0 mg/kg/injection, schedule: Q01DX001 (ip), vehicle: saline
[3] = dose: 200.0 mg/kg/injection, schedule: Q01DX001 (ip), vehicle: saline
[4] = dose: 400.0 mg/kg/injection, schedule: Q01DX001 (ip), vehicle: saline
[5] = dose: 100.0 mg/kg/injection, schedule: Q01DX009 (ip), vehicle: Klucel (hydroxypropylcellulose) (HPC)
[6] = dose: 200.0 mg/kg/injection, schedule: Q01DX009 (ip), vehicle: Klucel (hydroxypropylcellulose) (HPC)
[7] = dose: 400.0 mg/kg/injection, schedule: Q01DX009 (ip), vehicle: Klucel (hydroxypropylcellulose) (HPC)
[8] = dose: 50.0 mg/kg/injection, schedule: Q01DX001 (ip), vehicle: saline
[9] = dose: 100.0 mg/kg/injection, schedule: Q01DX001 (ip), vehicle: carboxymethylcellulose (CMC)
[10] = dose: 200.0 mg/kg/injection, schedule: Q01DX001 (ip), vehicle: carboxymethylcellulose (CMC)
[11] = dose: 400.0 mg/kg/injection, schedule: Q01DX001 (ip), vehicle: carboxymethylcellulose (CMC)
[12] = dose: 100.0 mg/kg/injection, schedule: Q04DX003 (ip), vehicle: saline with Tween-80
[13] = dose: 75.0 mg/kg/injection, schedule: Q01DX001 (ip), vehicle: saline
[14] = dose: 100.0 mg/kg/injection, schedule: Q04DX003 (ip), vehicle: saline
[15] = dose: 100.0 mg/kg/injection, schedule: Q01DX009 (ip), vehicle: saline with Tween-80
[16] = dose: 200.0 mg/kg/injection, schedule: Q01DX009 (ip), vehicle: saline with Tween-80
[17] = dose: 200.0 mg/kg/injection, schedule: Q04DX003 (ip), vehicle: saline with Tween-80
[18] = dose: 200.0 mg/kg/injection, schedule: Q04DX003 (ip), vehicle: saline
[19] = dose: 400.0 mg/kg/injection, schedule: Q01DX009 (ip), vehicle: saline with Tween-80
[20] = dose: 400.0 mg/kg/injection, schedule: Q04DX003 (ip), vehicle: saline

## COc1ccc2c3c([nH]c2c1)C(C)=NCC3
dose: 25.0 mg/kg/injection, schedule: Q04DX002 (ip), vehicle: Klucel (hydroxypropylcellulose) (HPC)
  T/C: 93 % of control
dose: 50.0 mg/kg/injection, schedule: Q04DX002 (ip), vehicle: Klucel (hydroxypropylcellulose) (HPC)
  T/C: 101 % of control
[1]
  T/C: 93 % of control and 89 % of control

## O=C(O)C1=C(C(=O)Nc2cccc3cccnc23)C2C=CC1O2 (configuration not stated)
[2]
  T/C: 96 % of control
[3]
  T/C: 97 % of control
[4]
  T/C: 95 % of control

## COc1ccc(C(=O)N/N=C/c2ccc(Cl)cc2Cl)cc1
[5]
  T/C: 102 % of control
[6]
  T/C: 94 % of control
[7]
  T/C: 91 % of control

## Cc1n[nH]c(=S)nc1C
[8]
  T/C: 96 % of control
dose: 50.0 mg/kg/injection, schedule: Q04DX003 (ip), vehicle: Klucel (hydroxypropylcellulose) (HPC)
  T/C: 96 % of control
[2]
  T/C: 102 % of control
dose: 100.0 mg/kg/injection, schedule: Q04DX003 (ip), vehicle: Klucel (hydroxypropylcellulose) (HPC)
  T/C: 96 % of control
[3]
  T/C: 93 % of control
dose: 200.0 mg/kg/injection, schedule: Q04DX003 (ip), vehicle: Klucel (hydroxypropylcellulose) (HPC)
  T/C: 91 % of control

## CN(CCNC(=O)C1CCCCC1C(=O)O)c1ccccc1 (configuration not stated)
[5]
  T/C: 98 % of control
[6]
  T/C: 92 % of control
[7]
  T/C: 96 % of control

## C=CCc1c2c(ccc(OC)c1=O)-c1c(cc(OC)c(OC)c1OC)CCC2NC(C)=O (configuration not stated)
[9]
  T/C: 106 % of control
[10]
  T/C: 109 % of control
[11]
  T/C: 109 % of control

## O=NN1CCN(N=O)CC1
[9]
  T/C: 94 % of control
[12]
  T/C: 101 % of control

## CN(C)CCCN=Cc1cc([N+](=O)[O-])ccc1O.CN(C)CCCN=Cc1cc([N+](=O)[O-])ccc1O.[Ni+2]
[12]
  T/C: 91 % of control

## CCSC(SCC)C(C)=O
[8]
  T/C: 92 % of control
[2]
  T/C: 108 % of control
[3]
  T/C: 94 % of control
[4]
  T/C: 89 % of control

## CCC1NCCc2cc(OC)c(O)cc21 (configuration not stated)
[13]
  T/C: 106 % of control
dose: 150.0 mg/kg/injection, schedule: Q01DX001 (ip), vehicle: saline
  T/C: 100 % of control

## CCCCNC(=O)NCCN(C)c1ccccc1
[1]
  T/C: 94 % of control
dose: 200.0 mg/kg/injection, schedule: Q04DX002 (ip), vehicle: Klucel (hydroxypropylcellulose) (HPC)
  T/C: 97 % of control
dose: 400.0 mg/kg/injection, schedule: Q04DX002 (ip), vehicle: Klucel (hydroxypropylcellulose) (HPC)
  T/C: 102 % of control

## C[n+]1cn(CCCl)c2ccccc21
dose: 10.0 mg/kg/injection, schedule: Q01DX Z (ip), vehicle: saline
  T/C: 93 % of control
dose: 30.0 mg/kg/injection, schedule: Q01DX Z (ip), vehicle: saline
  T/C: 95 % of control

## OC(c1ccccc1)(c1ccccc1)C1CCCCC1C(O)(c1ccccc1)c1ccccc1 (configuration not stated)
dose: 100.0 mg/kg/injection, schedule: Q01DX009 (ip), vehicle: saline
  T/C: 93 % of control
dose: 200.0 mg/kg/injection, schedule: Q01DX009 (ip), vehicle: saline
  T/C: 93 % of control
dose: 400.0 mg/kg/injection, schedule: Q01DX009 (ip), vehicle: saline
  T/C: 89 % of control

## C#CCOCC(O)C[As](=O)(O)c1cccc(Cl)c1 (configuration not stated)
dose: 1.56 mg/kg/injection, schedule: Q04DX003 (ip), vehicle: saline with Tween-80
  T/C: 92 % of control
dose: 3.13 mg/kg/injection, schedule: Q04DX003 (ip), vehicle: saline with Tween-80
  T/C: 104 % of control
dose: 6.25 mg/kg/injection, schedule: Q04DX003 (ip), vehicle: saline with Tween-80
  T/C: 104 % of control

## COc1cccc(NN)c1
dose: 50.0 mg/kg/injection, schedule: Q01DX009 (ip), vehicle: saline
  T/C: 100 % of control
[14]
  T/C: 101 % of control

## O=C(Nc1ccccc1C(F)(F)F)N(CC(O)c1ccccc1)C1CCCCC1 (configuration not stated)
[5]
  T/C: 106 % of control
[6]
  T/C: 95 % of control
[7]
  T/C: 100 % of control

## CN(CCN(CCCl)c1ccc(N)cc1)c1ccc(N)cc1
dose: 10.0 mg/kg/injection, schedule: Q04DX003 (ip), vehicle: saline
  T/C: 110 % of control
dose: 20.0 mg/kg/injection, schedule: Q04DX003 (ip), vehicle: saline
  T/C: 110 % of control
dose: 40.0 mg/kg/injection, schedule: Q04DX003 (ip), vehicle: saline
  T/C: 93 % of control

## c1ccc(C[P+](Cc2ccccc2)(c2ccccc2)c2ccccc2)cc1
[13]
  T/C: 94 % of control

## N#C/C(=C\c1cc(Cl)cc(Cl)c1O)C(/C(C#N)=C/c1cc(Cl)cc(Cl)c1O)c1ccc2c(c1)OCO2 (configuration not stated)
[15]
  T/C: 97 % of control
[14]
  T/C: 98 % of control
[16]
  T/C: 94 % of control
[17]
  T/C: 103 % of control
[18]
  T/C: 100 % of control
[19]
  T/C: 89 % of control
[20]
  T/C: 98 % of control

## c1ccc2c(c1)OC1OC2Oc2ccccc21
[2]
  T/C: 97 % of control
dose: 177.0 mg/kg/injection, schedule: Q01DX001 (ip), vehicle: saline
  T/C: 104 % of control and 92 % of control
[3]
  T/C: 101 % of control
dose: 266.0 mg/kg/injection, schedule: Q01DX001 (ip), vehicle: saline
  T/C: 93 % of control and 94 % of control
[4]
  T/C: 88 % of control and 90 % of control
dose: 600.0 mg/kg/injection, schedule: Q01DX001 (ip), vehicle: saline
  T/C: 86 % of control and 92 % of control

## OC(CN1CC1)C(O)CN1CC1 (configuration not stated)
dose: 0.06 mg/kg/injection, schedule: Q01DX Z (ip), vehicle: carboxymethylcellulose (CMC)
  T/C: 114 % of control
dose: 0.4 mg/kg/injection, schedule: Q01DX Z (ip), vehicle: saline
  T/C: 100 % of control
dose: 0.5 mg/kg/injection, schedule: Q01DX Z (ip), vehicle: carboxymethylcellulose (CMC)
  T/C: 200 % of control
dose: 0.6 mg/kg/injection, schedule: Q01DX Z (ip), vehicle: saline
  T/C: 100 % of control
dose: 0.9 mg/kg/injection, schedule: Q01DX Z (ip), vehicle: saline
  T/C: 95 % of control
dose: 1.0 mg/kg/injection, schedule: Q01DX Z (ip), vehicle: carboxymethylcellulose (CMC)
  T/C: 90 % of control
dose: 1.3 mg/kg/injection, schedule: Q01DX Z (ip), vehicle: saline
  T/C: 95 % of control

## CCCCCCCCCCC(=O)CC
[15]
  T/C: 102 % of control
[16]
  T/C: 104 % of control
[19]
  T/C: 113 % of control

## CCNc1nc2c(=O)[nH]c(N)nc2n1C1OC(CO)C(O)C1O (configuration not stated)
[9]
  T/C: 107 % of control
[10]
  T/C: 96 % of control
[11]
  T/C: 107 % of control

## CCCC1c2ccccc2-c2ccc(C(C)=O)cc21 (configuration not stated)
[9]
  T/C: 97 % of control
[10]
  T/C: 92 % of control
[11]
  T/C: 97 % of control

## Cc1ccc2nc3c(nc2c1)-c1cccc2cccc-3c12
dose: 25.0 mg/kg/injection, schedule: Q01DX009 (ip), vehicle: saline with Tween-80
  T/C: 94 % of control
dose: 50.0 mg/kg/injection, schedule: Q01DX009 (ip), vehicle: saline with Tween-80
  T/C: 90 % of control
[12]
  T/C: 102 % of control
[17]
  T/C: 93 % of control

## Oc1c(Br)ccc2c(O)c(Br)ccc12
[12]
  T/C: 87 % of control
dose: 118.0 mg/kg/injection, schedule: Q01DX009 (ip), vehicle: saline with Tween-80
  T/C: 107 % of control
[17]
  T/C: 92 % of control
dose: 235.0 mg/kg/injection, schedule: Q01DX009 (ip), vehicle: saline with Tween-80
  T/C: 103 % of control
dose: 400.0 mg/kg/injection, schedule: Q04DX003 (ip), vehicle: saline with Tween-80
  T/C: 95 % of control
dose: 470.0 mg/kg/injection, schedule: Q01DX009 (ip), vehicle: saline with Tween-80
  T/C: 103 % of control

## CN(C)C(=O)/C=C/C(=O)N(C)C
[14]
  T/C: 103 % of control
[18]
  T/C: 103 % of control
[20]
  T/C: 108 % of control
